From ChEMBL document CHEMBL1133888, “Development and in vitro efficacy of novel MMP2 and MMP9 specific doxorubicin albumin conjugates” (Bioorg Med Chem Lett, 2001) come the findings set out here.

This assay can be described thus: Inhibitory effect against murine renal cell carcinoma cell line (RENCA cells) using a BrdU-incorporation assay. Format: functional, cell-based. The note with it: Mus musculus.

`COc1cccc2c1C(=O)c1c(O)c3c(c(O)c1C2=O)C[C@@](O)(C(=O)CO)C[C@@H]3O[C@H]1C[C@H](N)[C@H](O)[C@H](C)O1` [DOXORUBICIN]: the IC50 is less than 10 nM.
